{"source": "paper PMC5996347", "about": "“2-Mercapto-Quinazolinones as Inhibitors of Type II NADH Dehydrogenase and Mycobacterium tuberculosis: Structure–Activity Relationships, Mechanism of Action and Absorption, Distribution, Metabolism, and Excretion Characterization” (ACS Infectious Diseases, 2018)", "key": {"[1]": {"biological_target": "T1, recombinant MBP-MtNdh (MTb NDH-2) (Mycobacterium tuberculosis, UniProt P95160)", "T1 construct": "The ORF corresponding to Rv1854c was codon optimized for E. coli; made in house; host or cells: E. coli BL21 (DE3) pLysS", "T1 sequence (P95160 whole entry)": "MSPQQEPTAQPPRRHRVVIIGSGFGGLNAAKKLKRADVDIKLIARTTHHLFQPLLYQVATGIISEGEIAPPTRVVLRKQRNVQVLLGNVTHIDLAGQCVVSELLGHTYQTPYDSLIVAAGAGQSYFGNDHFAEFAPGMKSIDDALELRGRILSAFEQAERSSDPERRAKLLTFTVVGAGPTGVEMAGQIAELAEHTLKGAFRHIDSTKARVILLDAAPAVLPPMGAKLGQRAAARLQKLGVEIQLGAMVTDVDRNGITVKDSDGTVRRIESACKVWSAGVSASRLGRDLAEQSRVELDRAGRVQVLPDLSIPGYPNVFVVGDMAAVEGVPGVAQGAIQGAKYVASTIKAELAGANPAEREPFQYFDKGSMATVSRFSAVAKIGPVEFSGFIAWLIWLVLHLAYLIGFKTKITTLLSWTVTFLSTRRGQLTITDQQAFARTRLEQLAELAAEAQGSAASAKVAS", "parameters": "method as in PMID 15767566", "details": "range covering Figure 6 and literature; read-out: IC50 against NDH-2 (text, chlorpromazine); cited from earlier work"}, "[2]": {"biological_target": "T1, recombinant MBP-MtNdh (MTb NDH-2)", "assay": "Ndh activity assay (NADH oxidation at 340 nm)", "assay_type": "biochemical", "details": "NADH 250 μM, Q2 40 μM; mean ± SD, Figure 6 inset; read-out: IC50 against MBP-MtNdh"}, "[3]": {"test_system": "cyd knockout strain (cydC::aph)", "assay_type": "cell-based, Mycobacterium tuberculosis"}, "physchem [4]": {"assay": "physchem", "assay_type": "physicochemical", "details": "pH 7.4", "description": "The chromatographic hydrophobicity index (CHI) was determined according the method previously described.[43],[44] Briefly, test compounds were prepared as 0.5 mM solutions in 50:50 acetonitrile/water and analyzed by reversed-phase HPLC-UV (wavelength 254 nm) using a Phenomenex Luna C18 100 Å, 150 × 4.6 mm, 5 μm column with a gradient of aqueous phase (50 mM ammonium acetate (pH 7.4)) and mobile phase (acetonitrile). By plotting the retention time of a set of reference compounds against known CHI values, the CHI value of test compounds was calculated according to their retention time."}, "piniBAC reporter strain": {"test_system": "piniBAC reporter strain", "assay_type": "cell-based, Mycobacterium tuberculosis", "details": "upregulation of iniBAC promoter"}, "[5]": {"assay_type": "in vitro ADME", "details": "female, CD1, mouse, 0.5 μM, pH 7.4", "description": "Test compound (0.5 μM) was incubated with female CD1 mouse liver microsomes (Xenotech LLC; 0.5 mg/mL, 50 mM potassium phosphate buffer, pH 7.4), and the reaction started with addition of excess NADPH (8 mg/mL, 50 mM potassium phosphate buffer, pH 7.4). Immediately, at time zero, and then at 3, 6, 9, 15, and 30 min, an aliquot (50 μL) of the incubation mixture was removed and mixed with acetonitrile (100 μL) to stop the reaction. Internal standard was added to all samples; the samples were centrifuged to sediment precipitated protein, and the plates were then sealed prior to UPLC-MS/MS analysis using a Quattro Premier XE (Waters Corporation, USA). XLfit (IDBS, UK) was used to calculate the exponential decay and consequently the rate constant (k) from the ratio of peak area of test compound to internal standard at each time point. The rate of intrinsic clearance (Cli) of each test compound was then calculated using the following calculation. [drawing 1] where V (mL/mg protein) is the incubation volume/mg protein added and microsomal protein yield is taken as 52.5 mg protein/g liver. Verapamil (0.5 μM) was used as a positive control to confirm acceptable assay performance."}, "M. tuberculosis H37Rv [6]": {"test_system": "M. tuberculosis H37Rv", "assay": "H37Rv MIC in GAST medium", "assay_type": "cell-based, Mycobacterium tuberculosis", "details": "Mycobacterium tuberculosis, H37RV; read-out: GAST MIC"}, "M. tuberculosis H37Rv [7]": {"test_system": "M. tuberculosis H37Rv", "assay": "microbe, parasite or virus in culture", "assay_type": "cell-based", "details": "Mycobacterium tuberculosis, read-out: 7H9-ADC MIC"}, "[8]": {"assay": "Calculated properties (StarDrop)"}, "physchem [9]": {"assay": "physchem", "assay_type": "physicochemical", "details": "water, kinetic from dmso stock, Kinetic solubility", "description": "The aqueous solubility of the test compounds was measured using laser nephelometry. Compounds were subject to serial dilution from 10 to 0.5 mM in DMSO. An aliquot was then mixed with Milli-Q water to obtain an aqueous dilution plate with a final concentration range of 250–12 μM, with a final DMSO concentration of 2.5%. Triplicate aliquots were transferred to a flat bottomed polystyrene plate which was immediately read on the NEPHELOstar (BMG Lab Technologies). The amount of laser scatter caused by insoluble particulates (relative nephelometry units, RNU) was plotted against compound concentration using a segmental regression fit, with the point of inflection being quoted as the compounds aqueous solubility (μM)."}, "M. tuberculosis": {"test_system": "M. tuberculosis", "assay": "microbe, parasite or virus in culture", "assay_type": "cell-based", "details": "Mycobacterium tuberculosis; read-out: MIC (internal control reference compound)"}, "MTb H37Rv": {"test_system": "MTb H37Rv", "assay": "Intracellular ATP levels (BacTiter-Glo)", "details": "24 h drug exposure"}}, "note": "Like-named read-outs stand apart in the source and are kept apart here."}
{"compound": "CN(C)CCCN1c2ccccc2Sc2ccc(Cl)cc21", "note": "[CPZ, chlorpromazine, reference compound]", "values": [{"measurement": "IC50", "setting": "[1]", "value": "10 to 25", "unit": "µM"}, {"measurement": "IC50", "setting": "[2]", "value": "25 ± 2", "unit": "µM"}]}
{"compound": "O=C(CSc1nc2ccccc2c(=O)[nH]1)NCc1ccccc1", "note": "[Compound 2]", "values": [{"measurement": "Cyd KO reporter", "setting": "[3]", "value": "Not likely QcrB inhibitor"}, {"measurement": "chromatographic logD", "setting": "physchem [4]", "value": 1.5}, {"measurement": "pini-LUC reporter", "setting": "piniBAC reporter strain", "value": "Not likely cell wall inhibitor"}, {"measurement": "Microsomal Cli, mouse", "setting": "[5]", "value": "Mouse 1.6 mL/min/g"}, {"measurement": "MIC", "setting": "M. tuberculosis H37Rv [6]", "value": 5.9, "unit": "µM"}, {"measurement": "MIC", "setting": "M. tuberculosis H37Rv [7]", "value": 4.5, "unit": "µM"}, {"measurement": "PFI", "setting": "[8]", "value": 4.3}, {"measurement": "IC50", "setting": "[2]", "value": "0.51 ± 0.05", "unit": "µM"}, {"measurement": "solubility kinetic", "setting": "physchem [9]", "value": 109, "unit": "µM"}]}
{"compound": "NNC(=O)c1ccncc1", "note": "[Isoniazid, isoniazid]", "values": [{"measurement": "MIC", "setting": "M. tuberculosis", "value": 0.2, "unit": "µM"}]}
{"compound": "COc1nc2ccc(Br)cc2cc1[C@@H](c1ccccc1)[C@@](O)(CCN(C)C)c1cccc2ccccc12", "note": "[bedaquiline]", "values": [{"measurement": "Cellular ATP levels in MTb", "setting": "MTb H37Rv", "value": "depletion of cellular ATP levels"}]}
